Our source for the IC50 values is patent publication US9884063B2, “Amido-substituted azole compounds” (Bayer Pharma Aktiengesellschaft, priority 2014, dated 2018).

The assay deals with T1, TNKS1 (Homo sapiens, UniProt O95271).
T1 sequence (O95271 1-1327): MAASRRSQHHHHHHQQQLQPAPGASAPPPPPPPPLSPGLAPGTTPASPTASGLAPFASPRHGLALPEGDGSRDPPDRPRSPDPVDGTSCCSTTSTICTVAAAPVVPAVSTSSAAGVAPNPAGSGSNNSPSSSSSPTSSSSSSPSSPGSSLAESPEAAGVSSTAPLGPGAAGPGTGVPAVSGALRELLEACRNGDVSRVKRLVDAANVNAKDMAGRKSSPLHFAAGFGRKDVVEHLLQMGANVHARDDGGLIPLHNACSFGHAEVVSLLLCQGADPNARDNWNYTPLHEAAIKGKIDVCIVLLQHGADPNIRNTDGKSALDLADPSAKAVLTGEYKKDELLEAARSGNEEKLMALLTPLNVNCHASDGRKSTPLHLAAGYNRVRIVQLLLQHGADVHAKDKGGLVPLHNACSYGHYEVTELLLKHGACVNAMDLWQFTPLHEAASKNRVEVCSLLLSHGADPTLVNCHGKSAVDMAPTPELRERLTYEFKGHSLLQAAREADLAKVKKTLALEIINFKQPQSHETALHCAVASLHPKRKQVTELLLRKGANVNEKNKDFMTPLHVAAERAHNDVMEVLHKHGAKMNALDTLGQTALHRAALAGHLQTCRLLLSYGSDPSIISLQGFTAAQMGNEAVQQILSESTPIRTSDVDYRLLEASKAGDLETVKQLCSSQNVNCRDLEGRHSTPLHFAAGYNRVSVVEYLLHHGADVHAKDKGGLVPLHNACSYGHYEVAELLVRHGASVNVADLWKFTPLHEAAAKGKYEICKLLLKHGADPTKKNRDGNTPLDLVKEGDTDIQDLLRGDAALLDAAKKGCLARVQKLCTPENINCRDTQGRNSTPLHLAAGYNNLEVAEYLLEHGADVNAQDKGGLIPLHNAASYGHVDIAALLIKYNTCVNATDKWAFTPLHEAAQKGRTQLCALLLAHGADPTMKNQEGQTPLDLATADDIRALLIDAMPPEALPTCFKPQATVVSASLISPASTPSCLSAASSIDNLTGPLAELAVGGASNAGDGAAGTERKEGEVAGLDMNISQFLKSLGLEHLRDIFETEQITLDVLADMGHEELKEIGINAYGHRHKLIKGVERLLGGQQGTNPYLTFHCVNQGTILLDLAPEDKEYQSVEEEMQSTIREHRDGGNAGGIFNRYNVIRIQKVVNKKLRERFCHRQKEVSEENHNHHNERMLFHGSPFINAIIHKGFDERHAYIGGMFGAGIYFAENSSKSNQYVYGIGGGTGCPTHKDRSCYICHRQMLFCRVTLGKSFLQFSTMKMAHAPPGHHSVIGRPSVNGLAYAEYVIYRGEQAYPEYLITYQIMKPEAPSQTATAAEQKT
Kind of assay: Modified TNKS1 Assay 2 (auto-parsylation, [3H]-NAD+ SPA). In kind it is biochemical. The conditions noted are these: 6 nM TNKS1, 96 well.

pIC50: −log10 of the molar value.

One may read the pIC50 as the IC50 on a negative log10 scale, so that one unit is a factor of ten. The low end stands for a large IC50, the high end for a small IC50. On to `CNC(=O)c1nc[nH]c1C(=O)Nc1ccc(NC(=O)c2ccc(O)cc2Cl)cc1` [Example 122, N^5-{4-[(2-chloro-4-hydroxybenzoyl)amino]phenyl}-N^4-methyl-1H-imidazole-4,5-dicarboxamide], for which the pIC50 was 6.02.
